One compound from patent publication US20260130999A1, “METHODS FOR TREATING CANCERS ASSOCIATED WITH ETBR ACTIVATION” (ENB Therapeutics, Inc., priority 2022, published 2026) can be followed below.

Molecules are shown by their SMILES.

For the test, the system named is 4T-1-HER2 mammary tumors. Put plainly: 4T1-HER2 mammary tumors in syngeneic female BALB/c mice treated with anti-HER2 CAR-T, BQ-788-B and anti-PD1. It is filed as in vivo. The source says:
Lentivirus for expression of an anti-HER2 CAR was produced by co-transfecting 293T-17 cells with lentiviral vector pLVX-EF1α-CAR-IRES-ZsGreen1 together with the packaging plasmids pSPAX2 and pMD2.G. Splenocytes from 6-week old female BALB/c mice were isolated by density-gradient centrifugation using a lymphocyte separation medium, Histopaque, activated in 24-well plates at a density of 1×10^6 cell/ml using a mouse T Cell Activation/Expansion Kit for 2-3 days, and then transduced with pLVX-EF1α-CAR-IRES-ZsGreen1 lentivirus at the multiplicity of infection of 20 in the presence of 8 µg/mL polybrene by centrifugation at 1,500×g for 2 hours at 32° C. GFP+ transduced T cells were analyzed by flow cytometry to evaluate the lentiviral transduction efficiency.
4T1-HER2 cells (4×10^6), were resuspended in 0.1 mL PBS and mixed with 0.1 mL Matrigel and injected subcutaneously into the right back region of BALB/c female mice (6-week-old, weighed 17-20 g). Tumor growth was monitored by caliper measurement every three days.
About 14 days after 4T-1-HER2 cell injection, when the tumor diameter reaches about 6 mm in diameter, mice were randomized into eight groups for treatments (6 mice per group).
Blank T or CAR-T cells (1×10^7 cells/mice) were injected intravenously into each mouse on day 11 and day 18 post-tumor inoculation. BQ-788-B ([…]) or PBS was administered via subcutaneous injection into each mouse, starting on day 10, every two or three days for a total of 9 injections. All mice were injected intraperitoneally with 20,000 IU IL-2 once every 2 days from day 14 to […] (Note: day 0 is defined as when 4T1-HER2 cells are injected into mice). Anti-PD1 or isotype control Ig (230 ug/mouse) was injected IP every 4 days, starting on day 11 post tumor inoculation (4 injections total). The eight treatment groups are listed below: • 1) Blank T+PBS+isotype • 2) CAR-T+PBS+isotype • 3) BQ-788-B+Blank T+isotype • 4) Blank T+PBS+anti-PD1 • 5) BQ-788-B+CAR-T+ isotype • 6) CAR-T+PBS+anti-PD1 • 7) BQ-788-B+Blank T+anti-PD1 • 8) BQ-788-B+CAR-T+ anti-PD1
Tumor growth was monitored by caliper measurement every three days. On the 30th day after 4T1-HER2 cell injection, all mice were euthanized by asphyxiation with CO2 followed by cervical dislocation. All tumors were dissected out and photographed before fixation in 10% formalin.

For the compound `[2H]C[C@@H]1CCC[C@H](C[2H])N1C(=O)N[C@@H](CC(C)(C)C)C(=O)N[C@H](Cc1cn(C(=O)OC)c2ccccc12)C(=O)N[C@H](CCCC)C(=O)O` [BQ-788-B], the “tumor volumes at day 29” value (BQ-788-B in combination with anti-PD1 and/or CAR-T therapy, compared to control, CAR-T alone, or PD-1 alone, FIG. 4) is “significantly reduced tumor volumes”. Also, where the note is “BQ-788-B in combination with anti-PD1 and/or CAR-T therapy, compared to control, CAR-T alone, or PD-1 alone, FIGS. 5A and 5B”, the “tumor weights at day 30” value is listed as “significantly reduced tumor weights”. The “anti-tumor efficacy of CAR-T cells, of anti-PD-1 antibody therapy and of their combinations” value (addition of BQ-788-B) is recorded as “significantly enhances the anti-tumor efficacy”. Besides, the “tumor suppression at later time points” value (addition of BQ-788-B in mice treated with either anti-PD1 or CAR-T therapy) is on record as “enhanced tumor suppression”.
